Non-standard residues stand in square brackets, D forms with d. Residues, ends and D or L forms follow the SMILES beside them. No end group written: not given here. Ac5c = NC1(C(=O)O)CCCC1; Aib = CC(C)(N)C(=O)O
Assays:
Format in all cases: cell-based
[1] = tested on: intracellular cAMP in MCF7 breast cancer cells; assay: cAMP levels in breast cancer cells (sandwich ELISA); settings: 30 minutes, final peptide concentration 10^−9M, Forskolin 1 micromolar
Method: Enzyme linked sandwich immunosorbent assay was carried out on breast cancer cells (MCF7) to study the modulation in levels of cAMP upon treatment with the peptides and their combinations. The cells were cultured in sterile 6 well plates at a density of 0.5×10^6/well in DMEM supplemented with 10% FCS, and allowed to adhere overnight.
The cells were co-incubated with Forskolin at a concentration of 1 micromolar. The cells were scraped using a cell scraper and pelleted. The cell pellet was suspended in appropriate resuspension buffer (50 mM Tris, containing EDTA, 0.2 mM phenyl methyl sulfonyl fluoride (PMSF), 1 ug/ml pepstatin and 0.5 microgram/ml leupeptin adjusted to pH 7.4). The cell extracts were transferred to microcentrifuge tubes and centrifuged for 5 minutes at 10000×g. cAMP standards ranging in concentrations from 200 units/ml to 0 units/ml were prepared immediately prior to the start of the assay. Fluorescein isothiocyanate (FITC) conjugated monoclonal antibody directed to cAMP was added to microtitre wells precoated with primary monoclonal antibody against cAMP. 50 ul of sample lysates, and cAMP standards were added in duplicates in the microtitre wells containing both the monoclonals to cAMP. The wells were incubated at room temperature for 2 hours. The microtitre wells were washed three times with appropriate wash buffer (PBS 50 mM, with Tween 0.5%) and the appropriate dilution of anti FITC horse radish peroxidase conjugate was added and incubated for 30 minutes. The microtitre wells were washed thrice with the wash buffer and subsequently with distilled water. Tetra-methylbenzidine was added to each well and incubated in dark for 30 minutes at room temperature. The absorbance was measured in each well at dual wavelength of 450/595 nm within 30 minutes of the addition of stop solution and the amount of cAMP present in the cell samples calculated.

[2] = tested on: tyrosine phosphatase in MiaPaCa2 cells; assay: Tyrosine phosphatase activity in pancreatic cancer cells (colorimetric); settings: 30 minutes, final peptide concentration 10^−9M
Method: The quantitation of tyrosine phosphatase was carried out colorimetrically by using their synthetic biotin labeled tyrosine phosphorylated peptide substrates. The enzyme reaction was quenched by the addition of a specific inhibitor, and the phosphorylated and dephosphorylated substrate is immobilized by binding to the streptavidin coated microtitre plate. The fraction of the unmetabolized substrate is determined by its anti phospho tyrosine antibody directly conjugated to peroxidase.
The cells were cultured in sterile 6 well plates at a density of 0.5×10^6/well in DMEM supplemented with 10% FCS, and allowed to adhere overnight. The medium was changed to DMEM. The cells were treated with appropriate concentrations of the peptide and their combinations shown in Table 6, for 30 minutes, such that in each case the final peptide concentration was 10^−9M.
The cells were lysed in appropriate lysis buffer (50 mM Tris, containing EDTA, 0.2 mM PMSF, 1 microgram/microliter pepstatin and 0.5 microgram/microliter leupeptin adjusted to pH 7.4). […]
The quantitation of phosphatase enzyme activity was performed with 30 microliter of specific substrates and the reaction was quenched with the addition of 100 micromolar sodium orthvanadate. […] After 3 washings, 100 microliter of the substrate POD was added to the wells, and the absorbance was read at 405 nm.

Caspase-3 = Caspase-3 induction (DEVD-pNA colorimetric) in cancer cells; settings: each peptide 10^−8M, 6 hours
Method: PA-1 (Ovary), MDA.MB.453 (breast), HT29 (colon) and A549 (lung) cancer cells were cultured in 25 cm^2 tissue culture flasks at 37° C. in a humidified incubator containing 5% CO2. When cultures reached pre-confluence individual peptides of the combination and different combinations of the peptides as shown in Table 8 were added to different flasks such that the final concentration of each peptide in the flask was 10^−8M. The untreated flasks served as controls. The cells were incubated with drug for 6 hours.
After 6 hours of incubation cells were collected by trypsin treatment followed by centrifugation at 2000 r.p.m. for 10 minutes. The supernatant was gently removed and discarded and Lysis Buffer was added to the cell pellet (25 microliter of lysis buffer per 1×10^4 cells I a 15 ml conical tube) and incubated on ice for 10 minutes and centrifuged at 10,000-×g for 1 minute. 50 microliter of supernatant (cell lysate) was transferred to the wells of a 96-well plate. 2× Reaction buffer was prepared by adding 10 microliter of fresh DTT stock per 1 ml of 2× Reaction Buffer. 50 micro liter 2× Reaction Buffer was added to each well followed by addition of 5 micro liter of Caspase-3 colorimetric substrate (DEVD-pNA). The plate was incubated for 1-2 hours at 37° C. Following incubation the plate was read on a microplate reader at 405 nm-wavelength light the level of caspase enzymatic activity in the cell lys ate was directly proportional to the color reaction. The induction of caspase activity by the subcombinations was calculated as a percentage of control using the formula [(Sample OD/Control OD)−1]*100.

Row | Compound | cAMP (% Of Control) [1] [% Of Control] | % Induction of Tyrosine phosphatase [2] [%] | Caspase-3 % INDUCTION (Caspase-3; A549) [%] | Caspase-3 % INDUCTION (Caspase-3; HT29) [%] | Caspase-3 % INDUCTION (Caspase-3; MDA.MB453) [%] | Caspase-3 % INDUCTION (Caspase-3; PA-1) [%]
1 | C[C@@H](O)[C@H](NC(=O)[C@H]1NC(=O)[C@H]([C@@H](C)O)NC(=O)[C@H](CCCN)NC(=O)[C@@H](Cc2c[nH]c3ccccc23)NC(=O)[C@H](Cc2ccc(O)cc2)NC(=O)[C@@H](NC(=O)[C@H](N)Cc2ccccc2)CSSC1(C)C)C(N)=O [SEQ ID NO: 4, D-Phe-Cys-Tyr-D-Trp-Orn-Thr-Pen-Thr-NH2] | 12.9 ± 5.0 | 15.6 ± 4.5 | 28.4 ± 2.8 | 18.6 ± 1.9 | 18.9 ± 1.0 | 34.8 ± 1.3
2 | CC(C)C[C@H](NC(=O)[C@H](Cc1c[nH]cn1)NC(=O)C(C)(C)NC(=O)[C@@H](NC(=O)[C@H](C)NC(=O)[C@H](Cc1c[nH]c2ccccc12)NC(=O)[C@H](CCC(N)=O)NC(=O)[C@H](N)Cc1ccccc1)C(C)C)C(N)=O [SEQ ID NO: 2, D-Phe-Gln-Trp-Ala-Val-Aib-His-Leu-NH2] (H-[dF]QWAV[Aib]HL-NH2; N-terminus assumed) | 15.4 ± 3.0 |  |  |  |  | 
3 | LMYPTYLK-OH [SEQ ID NO: 1, Leu-Met-Tyr-Pro-Thr-Tyr-Leu-Lys-OH] | 25.2 ± 4.5 |  |  |  |  | 
4 | CC(C)C[C@H](NC(=O)[C@@H](Cc1c[nH]c2ccccc12)NC(=O)[C@H](Cc1ccccc1)NC(=O)[C@@H](Cc1c[nH]c2ccccc12)NC(=O)[C@H](CCC(N)=O)NC(=O)[C@@H](Cc1ccccc1)NC(=O)[C@@H]1CCCN1C(=O)[C@H](CCCCN)NC(=O)[C@@H]1CCCN1C(=O)[C@H](N)CCCNC(=N)N)C(=O)NC1(C(N)=O)CCCC1 [SEQ ID NO: 3, D-Arg-Pro-Lys-Pro-D-Phe-Gln-D-Trp-Phe-D-Trp-Leu-Ac5c-NH2] (H-[dR]PKP[dF]Q[dW]F[dW]L[Ac5c]-NH2; N-terminus assumed) | 13.3 ± 4.0 | 14.3 ± 3.5 | 38.5 ± 3.8 | 28.4 ± 2.4 | 22.8 ± 3.8 | 46.2 ± 2.1

Reference: patent publication US7781398B2, “Drug comprising synthetic peptide analogs for the treatment of cancer” (Dabur Pharma Ltd., priority 2002, dated 2010)
